This assay deals with T1, hM5 (Homo sapiens, UniProt P08912).
T1 construct: expressed in transfected cells
T1 sequence (P08912 1-532): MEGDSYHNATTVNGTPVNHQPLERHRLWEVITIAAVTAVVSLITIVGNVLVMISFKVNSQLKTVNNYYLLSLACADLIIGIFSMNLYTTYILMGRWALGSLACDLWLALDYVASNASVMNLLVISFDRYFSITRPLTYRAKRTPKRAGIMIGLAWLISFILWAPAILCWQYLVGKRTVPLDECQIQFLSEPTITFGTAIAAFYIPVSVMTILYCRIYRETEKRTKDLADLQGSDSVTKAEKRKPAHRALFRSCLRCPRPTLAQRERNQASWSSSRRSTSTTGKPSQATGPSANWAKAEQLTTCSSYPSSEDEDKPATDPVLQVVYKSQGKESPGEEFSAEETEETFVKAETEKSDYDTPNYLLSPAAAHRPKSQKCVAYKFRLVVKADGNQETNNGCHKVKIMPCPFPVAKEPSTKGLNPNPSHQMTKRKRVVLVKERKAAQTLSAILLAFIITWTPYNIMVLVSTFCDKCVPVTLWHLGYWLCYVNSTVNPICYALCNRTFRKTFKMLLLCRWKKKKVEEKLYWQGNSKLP
The assay can be described thus: Calcium mobilization concentration-response (IC50 vs EC80 acetylcholine), CHO hM5. The format is cell-based. To be noted: CELL LINE hM5; vs EC80 acetylcholine; read-out: IC50. A digest of the protocol: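 IC50 values derive from percent maximal acetylcholine response after an EC80 ACh addition, measured as kinetic calcium fluorescence (static ratio, max−min). Test compounds were added 140 s before agonist. Cells: stable hM5-CHO in HEPES-buffered HBSS with 2.5 mM probenecid, pH 7.4; ≥3 independent triplicate determinations.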
A general note: Calcium flux is commonly read through the fluorescence of an indicator in the cells.

Experimental findings from patent US20230183237A1, “COMPETITIVE AND NONCOMPETITIVE INHIBITORS OF THE MUSCARINIC ACETYLCHOLINE RECEPTOR M5” (Vanderbilt University, priority 2020, published 2023) are described below.

A value given as a limit tells only on which side of the number the result lay.

One may read the IC50 as the concentration that gives 50% inhibition.

Consider `[2H]C([2H])([2H])OCc1c(S(=O)(=O)N2CCC(c3cn4ncnc4cc3C)CC2)cnn1C` [Compound 440, 6-(1-((5-((methoxy-d3)methyl)-1-methyl-1H-pyrazol-4-yl)sulfonyl)piperidin-4-yl)-7-methyl-[1,2,4]triazolo[1,5-a]pyridine], for which the half-maximal inhibitory concentration (IC50) was determined as 4.96 µM.

Consider `[2H]C([2H])([2H])OCc1c(S(=O)(=O)N2CCC(c3cn4ncnc4cc3F)CC2)cnn1C` [Compound 441, 7-fluoro-6-(1-((5-((methoxy-d3)methyl)-1-methyl-1H-pyrazol-4-yl)sulfonyl)piperidin-4-yl)-[1,2,4]triazolo[1,5-a]pyridine], for which the IC50 was greater than 10 µM.

As for `Cc1cc2ncnn2cc1C1CCN(S(=O)(=O)c2cnn3cccnc23)CC1` [Compound 442, 7-methyl-6-(1-(pyrazolo[1,5-a]pyrimidin-3-ylsulfonyl)piperidin-4-yl)-[1,2,4]triazolo[1,5-a]pyridine], the 50% inhibitory concentration (IC50) is 0.175 µM.

As to `O=S(=O)(c1cnn2cccnc12)N1CCC(c2cn3ncnc3cc2F)CC1` [Compound 443, 7-fluoro-6-(1-(pyrazolo[1,5-a]pyrimidin-3-ylsulfonyl)piperidin-4-yl)-[1,2,4]triazolo[1,5-a]pyridine], the IC50 was greater than 10 µM.

`Cc1cc2ncccc2cc1C1CCN(S(=O)(=O)c2cnn3c2CCC3)CC1` [Compound 444, 6-(1-((5,6-dihydro-pyrrolo[1,2-b]pyrazol-3-yl)sulfonyl)piperidin-4-yl)-7-methylquinoline]: the IC50 was 0.015 µM.

Turning to `Cc1cc2ncccc2cc1C1CCN(S(=O)(=O)c2c(C)nn(C)c2C(F)(F)F)CC1` [Compound 445, 6(1-((1,3-dimethyl-5-(trifluoromethyl)-1H-pyrazol-4-yl)sulfonyl)piperidin-4-yl)-7-methylquinoline], the IC50 is 1.95 µM.

Consider `Cc1cc2ncccc2cc1C1CCN(S(=O)(=O)c2cnn3c2OCCC3)CC1` [Compound 446, 3-((4-(7-methylquinolin-6-yl)piperidin-1-yl)sulfonyl)-6,7-dihydro-5H-pyrazolo[5,1-b][1,3]oxazine], for which the concentration for half-maximal inhibition (IC50) came out at 0.028 µM.

Consider `Cc1cc2ncccc2cc1C1CCN(S(=O)(=O)c2c(Cl)nn3ccccc23)CC1` [Compound 447, 6-(1-((2-chloropyrazolo[1,5-a]pyridin-3-yl)sulfonyl)piperidin-4-yl)-7-methylquinoline], for which the IC50 worked out at 1.36 µM.

As for `Cc1cc2ncccc2cc1C1CCN(S(=O)(=O)c2cnn3cccnc23)CC1` [Compound 448, 7-methyl-6-(1-(pyrazolo[1,5-a]pyrimidin-3-ylsulfonyl)piperidin-4-yl)quinoline], the IC50 was determined as 1.99 µM.

Turning to `Cc1ncc(S(=O)(=O)N2CCC(c3cc4cccnc4cc3C)CC2)s1` [Compound 449, 2-methyl-5-((4-(7-methylquinolin-6-yl)piperidin-1-yl)sulfonyl)thiazole], the half-inhibitory concentration (IC50) was 2.36 µM.

As for `Cc1cc2ncccc2cc1C1CCN(S(=O)(=O)c2cnc3n2CCCC3)CC1` [Compound 450, 7-methyl-6-(1-((5,6,7,8-tetrahydroimidazo[1,2-a]pyridin-3-yl)sulfonyl)piperidin-4-yl)quinoline], the half-inhibitory concentration (IC50) turned out to be 0.039 µM.

`Cc1cc2ncccc2cc1C1CCN(S(=O)(=O)c2c(Cl)nc3sccn23)CC1` [Compound 451, 6-chloro-5-((4-(7-methylquinolin-6-yl)piperidin-1-yl)sulfonyl)imidazo[2,1-b]thiazole]: the concentration for half-maximal inhibition (IC50) came out at 0.619 µM.

On to `Cc1cc2ncccc2cc1C1CCN(S(=O)(=O)c2cnc3ccccn23)CC1` [Compound 452, 6-(1-(imidazo[1,2-a]pyridin-3-ylsulfonyl)piperidin-4-yl)-7-methylquinoline], for which the IC50 stood at 0.445 µM.

Consider `Cc1cc2ccnn2cc1C1CCN(S(=O)(=O)c2cnn(C)c2C)CC1` [Compound 453, 6-(1-((1,5-dimethyl-1H-pyrazol-4-yl)sulfonyl)piperidin-4-yl)-5-methylpyrazolo[1,5-a]pyridine], for which the concentration for half-maximal inhibition (IC50) is 0.216 µM.

Turning to `Cc1cc2ccnn2cc1C1CCN(S(=O)(=O)c2cnn(C)c2CC#N)CC1` [Compound 454, 2-(1-methyl-4-((4-(5-methylpyrazolo[1,5-a]pyridin-6-yl)piperidin-1-yl)sulfonyl)-1H-pyrazol-5-yl)acetonitrile], the half-maximal inhibitory concentration (IC50) was greater than 10 µM.

For `Cc1c(S(=O)(=O)N2CCC(c3cn4ncnc4cc3C(F)F)CC2)cnn1C` [Compound 455, 7-(difluoromethyl)-6-(1-((1,5-dimethyl-1H-pyrazol-4-yl)sulfonyl)piperidin-4-yl)-[1,2,4]triazolo[1,5-a]pyridine], the half-inhibitory concentration (IC50) turned out to be 0.063 µM.

For the molecule `Cn1ncc(S(=O)(=O)N2CCC(c3cn4ncnc4cc3C(F)F)CC2)c1CC#N` [Compound 456, 2-(4-((4-(7-(difluoromethyl)-[1,2,4]triazolo[1,5-a]pyridin-6-yl)piperidin-1-yl)sulfonyl)-1-methyl-1H-pyrazol-5-yl)acetonitrile], the IC50 was determined as 0.414 µM.

With `Cc1cc2ncnn2cc1C1(F)CCN(S(=O)(=O)c2cnn(C)c2CC#N)CC1` [Compound 457, 2-(4-((4-fluoro-4-(7-methyl-[1,2,4]triazolo[1,5-a]pyridin-6-yl)piperidin-1-yl)sulfonyl)-1-methyl-1H-pyrazol-5-yl)acetonitrile], the IC50 was greater than 10 µM.

As to `Cc1cc2ncnn2cc1C1(F)CCN(S(=O)(=O)c2cnn3cccnc23)CC1` [Compound 458, 6-(4-fluoro-1-(pyrazolo[1,5-a]pyrimidin-3-ylsulfonyl)piperidin-4-yl)-7-methyl-[1,2,4]triazolo[1,5-a]pyridine], the IC50 stood at 0.754 µM.

On to `Cc1cc2ncccc2cc1C1CCN(S(=O)(=O)c2cnn(C)c2CC#N)CC1` [Compound 461, 2-(1-methyl-4-((4-(7-methylquinolin-6-yl)piperidin-1-yl)sulfonyl)-1H-pyrazol-5-yl)acetonitrile], for which the IC50 is 1.28 µM.

With `Cc1cc2ncnn2cc1C1(F)CCN(S(=O)(=O)c2cnn(C)c2C#N)CC1` [Compound 462, 4-((4-fluoro-4-(7-methyl-[1,2,4]triazolo[1,5-a]pyridin-6-yl)piperidin-1-yl)sulfonyl)-1-methyl-1H-pyrazole-5-carbonitrile], the IC50 worked out at 0.086 µM.

With `Cc1nc2n(c1C1CCN(S(=O)(=O)c3cnn(C)c3Cl)CC1)CCCC2` [Compound 463, 3-(1-((5-Chloro-1-methyl-1H-pyrazol-4-yl)sulfonyl)piperidin-4-yl)-2-methyl-5,6,7,8-tetrahydroimidazo[1,2-a]pyridine], the 50% inhibitory concentration (IC50) worked out at 0.25 µM.

Consider `Cc1nc2n(c1C1CCN(S(=O)(=O)c3cnn(C)c3C)CC1)CCCC2` [Compound 464, 3-(1-((1,5-dimethyl-1H-pyrazol-4-yl)sulfonyl)piperidin-4-yl)-2-methyl-5,6,7,8-tetrahydroimidazo[1,2-a]pyridine], for which the IC50 stood at 0.275 µM.

As for `Cc1nc2n(c1C1CCN(S(=O)(=O)c3cnn(C)c3C(F)F)CC1)CCCC2` [Compound 465, 3-(1-((5-(difluoromethyl)-1-methyl-1H-pyrazol-4-yl)sulfonyl)piperidin-4-yl)-2-methyl-5,6,7,8-tetrahydroimidazo[1,2-a]pyridine], the half-maximal inhibitory concentration (IC50) is 6.92 µM.

`Cc1nc2n(c1C1CCN(S(=O)(=O)c3cnn(C)c3CC#N)CC1)CCCC2` [Compound 466, 2-(1-methyl-4-((4-(2-methyl-5,6,7,8-tetrahydroimidazo[1,2-a]pyridin-3-yl)piperidin-1-yl)sulfonyl)-1H-pyrazol-5-yl)acetonitrile]: the IC50 was greater than 10 µM.
